Laboratory results published in patent publication US8153809B2, “Dihydropyridone ureas as P2X7 modulators” (Roche Palo Alto LLC, priority 2008, dated 2012).

Target: T1, P2X7 (UniProt Q99572)
T1 sequence (Q99572 1-595): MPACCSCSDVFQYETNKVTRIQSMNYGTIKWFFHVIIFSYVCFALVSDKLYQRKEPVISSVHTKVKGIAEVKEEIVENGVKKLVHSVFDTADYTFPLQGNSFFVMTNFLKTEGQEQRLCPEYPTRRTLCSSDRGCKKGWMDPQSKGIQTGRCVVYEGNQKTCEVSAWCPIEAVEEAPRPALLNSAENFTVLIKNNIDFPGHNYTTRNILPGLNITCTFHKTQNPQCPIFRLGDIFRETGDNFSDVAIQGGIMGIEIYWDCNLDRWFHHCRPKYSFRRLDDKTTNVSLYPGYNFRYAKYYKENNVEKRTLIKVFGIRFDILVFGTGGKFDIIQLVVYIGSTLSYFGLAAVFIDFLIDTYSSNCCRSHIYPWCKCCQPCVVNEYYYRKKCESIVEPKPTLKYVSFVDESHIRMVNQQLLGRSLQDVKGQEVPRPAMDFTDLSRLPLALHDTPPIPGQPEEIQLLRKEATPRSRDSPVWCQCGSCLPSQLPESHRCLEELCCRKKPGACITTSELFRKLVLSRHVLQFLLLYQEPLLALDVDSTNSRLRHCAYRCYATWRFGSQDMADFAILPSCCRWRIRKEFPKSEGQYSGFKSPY
Experiment: pIC50 values for P2X7 (Table 1)
Format: cell-based
Procedure: Intracellular Calcium Flux (FLIPR) Assay
Compound and Reagent Preparation
Stock solutions of compounds were prepared from powders as a 10 mM DMSO stock solution. These solutions were stored at RT during the two week period of these experiments to prevent freeze-thaw of the DMSO stocks. The DMSO stocks were added to the appropriate assay buffer at a concentration of 10 μM, and then diluted serially to the final concentrations that were tested. […] The aqueous solutions of compounds as well as ATP (Sigma A7699) and BzATP (Sigma B6396) were prepared fresh for each day of experiment.
1321N1 cells stably expressing the full length human P2X7 gene (1321N1-hP2X7) and HEK293 cells stably expressing the full length rat P2X7 gene (HEK293-rP2X7) were obtained from the Roche Cell Culture Facility. 1321N1-hP2X7 cells were grown in Dulbecco's Modified Eagle's Medium (DMEM) high glucose supplemented with 10% FBS and 250 μg/mL G418. HEK293-rP2X7 cells were grown in DMEM/F-12 supplemented with 10% FBS, 1 mM CaCl2, 2 mM MgCl2, 2 mM L-Glutamine and 500 μg/ml G418. Cells were split such that they never became >70% confluent.
Intracellular Calcium Flux (FLIPR)
On the day prior to the experiment, 1321N1-hP2X7 or HEK293-rP2X7 cells were released into suspension with calcium-free PBS+Versene and washed by centrifugation with calcium-free PBS to remove the Versene.
On the day of the experiment, plates were washed with FLIPR buffer (calcium- and magnesium-free Hank's Balanced Salt Solution (HBSS) supplemented with 10 mM Hepes, 2.5 mM probenecid and 2 mM calcium chloride) using a BIO-TEK 96 channel plate washer and incubated with […] fluo-3 dye at 37° C. for one hr. The dye was then removed by plate washing and the cells were allowed to equilibrate for 20 min at room temperature with antagonist or vehicle (FLIPR buffer). Agonist (100 μM BzATP final concentration for hP2X7; 5 μM BzATP final concentration or rP2X7) was added online with the FLIPR and fluorescence measurements made at 1 sec intervals for 60 sec followed by 3 sec intervals for a further 4 min (5 min total). A final addition of 5 μM ionomycin was made and the maximal BzATP-evoked fluorescence normalized to the maximal ionomycin-evoked fluorescence.

| SMILES | pIC50 |
| --- | --- |
| Cc1n[nH]c2cc(NC(=O)N3C=CC(=O)C[C@H]3c3ccc(F)cc3)c(Br)cc12 [Compound 36, (S)-2-(4-Fluoro-phenyl)-4-oxo-3,4-dihydro-2H-pyridine-1-carboxylic acid (5-bromo-3-methyl-1H-indazol-6-yl)-amide] | 6.905 |
| O=C1C=CN(C(=O)Nc2cc3c(cc2Br)OCO3)C(c2ccc(F)cc2)C1 (stereo not drawn) [Compound 37] | 7.457 |
| COC(=O)c1cc(Br)c(NC(=O)N2C=CC(=O)C[C@H]2c2ccc(F)cc2)cc1OC [Compound 38, 5-Bromo-4-{[(S)-2-(4-fluoro-phenyl)-4-oxo-3,4-dihydro-2H-pyridine-1-carbonyl]-amino}-2-methoxy-benzoic acid methyl ester] | 6.89 |
| COC(=O)c1cc(Br)c(NC(=O)N2C=CC(=O)C[C@H]2c2cccc(F)c2)cc1OC [Compound 39, 5-Bromo-4-{[(S)-2-(3-fluoro-phenyl)-4-oxo-3,4-dihydro-2H-pyridine-1-carbonyl]-amino}-2-methoxy-benzoic acid methyl ester] | 7.06 |
| O=C1C=CN(C(=O)Nc2cc(OCCO)c(Cl)cc2Br)[C@H](c2ccc(F)cc2)C1 [Compound 40, (S)-2-(4-Fluoro-phenyl)-4-oxo-3,4-dihydro-2H-pyridine-1-carboxylic acid [2-bromo-4-chloro-5-(2-hydroxy-ethoxy)-phenyl]-amide] | 7.607 |
| COc1cc(NC(=O)N2C=CC(=O)CC2c2ccccc2F)c(Br)cc1C (stereo not drawn) [Compound 41, 2-(2-Fluoro-phenyl)-4-oxo-3,4-dihydro-2H-pyridine-1-carboxylic acid (2-bromo-5-methoxy-4-methyl-phenyl)-amide] | 6.43 |
| COc1cc(NC(=O)N2C=CC(=O)C[C@H]2c2ccc(F)cc2)c(Br)cc1OC(F)F [Compound 42, (S)-2-(4-Fluoro-phenyl)-4-oxo-3,4-dihydro-2H-pyridine-1-carboxylic acid (2-bromo-4-difluoromethoxy-5-methoxy-phenyl)-amide] | 7.503 |
| COc1cc(NC(=O)N2C=CC(=O)CC2c2ccc(F)c(F)c2)c(Br)cc1C (stereo not drawn) [Compound 44, 2-(3,4-Difluoro-phenyl)-4-oxo-3,4-dihydro-2H-pyridine-1-carboxylic acid (2-bromo-5-methoxy-4-methyl-phenyl)-amide] | 7.383 |
| COc1cc(NC(=O)N2C=CC(=O)C[C@H]2c2ccc(F)cc2)ccc1C [Compound 45, (S)-2-(4-Fluoro-phenyl)-4-oxo-3,4-dihydro-2H-pyridine-1-carboxylic acid (3-methoxy-4-methyl-phenyl)-amide] | 6.737 |
| COc1cc(NC(=O)N2C=CC(=O)C[C@H]2c2cccc(F)c2)c(Br)cc1OC(F)F [Compound 46, (S)-2-(3-Fluoro-phenyl)-4-oxo-3,4-dihydro-2H-pyridine-1-carboxylic acid (2-bromo-4-difluoromethoxy-5-methoxy-phenyl)-amide] | 7.293 |
| Cc1cc(Br)c(NC(=O)N2C=CC(=O)C[C@H]2c2ccc(F)cc2)cc1C#N [Compound 48, (S)-2-(4-Fluoro-phenyl)-4-oxo-3,4-dihydro-2H-pyridine-1-carboxylic acid (2-bromo-5-cyano-4-methyl-phenyl)-amide] | 6.84 |

Second part, the compound after the results:

| pIC50 | SMILES |
| --- | --- |
| 7.21 | COc1cc(NC(=O)N2C=CC(=O)C[C@H]2c2ccc(F)cc2)c(F)cc1C [Compound 49, (S)-2-(4-Fluoro-phenyl)-4-oxo-3,4-dihydro-2H-pyridine-1-carboxylic acid (2-fluoro-5-methoxy-4-methyl-phenyl)-amide] |
| 7.407 | O=C1C=CN(C(=O)Nc2cc(OCCO)c(Cl)cc2Br)[C@H](c2cccc(F)c2)C1 [Compound 50, (S)-2-(3-Fluoro-phenyl)-4-oxo-3,4-dihydro-2H-pyridine-1-carboxylic acid [2-bromo-4-chloro-5-(2-hydroxy-ethoxy)-phenyl]-amide] |
| 6.857 | CC(=O)c1cc(NC(=O)N2C=CC(=O)C[C@H]2c2ccc(F)cc2)c(Br)cc1Cl [Compound 51, (S)-2-(4-Fluoro-phenyl)-4-oxo-3,4-dihydro-2H-pyridine-1-carboxylic acid (5-acetyl-2-bromo-4-chloro-phenyl)-amide] |
| 7.065 | Cn1ccc2ccc(NC(=O)N3C=CC(=O)CC3c3ccc(F)cc3)cc21 (stereo not drawn) [Compound 52, 2-(4-Fluoro-phenyl)-4-oxo-3,4-dihydro-2H-pyridine-1-carboxylic acid (1-methyl-1H-indol-6-yl)-amide] |
| 8.01 | COc1ccc(C)c(NC(=O)N2C=CC(=O)C[C@H]2c2cccc(F)c2)c1 [Compound 53, (S)-2-(3-Fluoro-phenyl)-4-oxo-3,4-dihydro-2H-pyridine-1-carboxylic acid (5-methoxy-2-methyl-phenyl)-amide] |
| 6.38 | CS(=O)(=O)CCCOc1cc(NC(=O)N2C=CC(=O)C[C@H]2c2ccc(F)cc2)c(Br)cc1Cl [Compound 54, (S)-2-(4-Fluoro-phenyl)-4-oxo-3,4-dihydro-2H-pyridine-1-carboxylic acid [2-bromo-4-chloro-5-(3-methanesulfonyl-propoxy)-phenyl]-amide] |
| 5.845 | COc1cc(NC(=O)N2C=CC(=O)C[C@H]2c2ccc(F)cc2)c(Br)cc1C(=O)OC(C)(C)C [Compound 55, 5-Bromo-4-{[(S)-2-(4-fluoro-phenyl)-4-oxo-3,4-dihydro-2H-pyridine-1-carbonyl]-amino}-2-methoxy-benzoic acid tert-butyl ester] |
| 5.11 | COc1ccc(S(C)(=O)=O)cc1NC(=O)N1C=CC(=O)CC1c1ccc(F)cc1 (stereo not drawn) [Compound 56, 2-(4-Fluoro-phenyl)-4-oxo-3,4-dihydro-2H-pyridine-1-carboxylic acid (5-methanesulfonyl-2-methoxy-phenyl)-amide] |
| 7.42 | CC(O)c1cc(NC(=O)N2C=CC(=O)C[C@H]2c2ccc(F)cc2)c(Br)cc1Cl (stereo partly drawn) [Compound 57, (S)-2-(4-Fluoro-phenyl)-4-oxo-3,4-dihydro-2H-pyridine-1-carboxylic acid [2-bromo-4-chloro-5-(1-hydroxy-ethyl)-phenyl]-amide] |
| 6.43 | Cc1cc(F)c(NC(=O)N2C=CC(=O)C[C@H]2c2cccc(F)c2)cc1OCCO [Compound 58, (S)-2-(3-Fluoro-phenyl)-4-oxo-3,4-dihydro-2H-pyridine-1-carboxylic acid [2-fluoro-5-(2-hydroxy-ethoxy)-4-methyl-phenyl]-amide] |
| 6.62 | Cc1cc(F)c(NC(=O)N2C=CC(=O)C[C@H]2c2ccc(F)cc2)cc1OCCO [Compound 59, (S)-2-(4-Fluoro-phenyl)-4-oxo-3,4-dihydro-2H-pyridine-1-carboxylic acid [2-fluoro-5-(2-hydroxy-ethoxy)-4-methyl-phenyl]-amide] |
| 5.78 | COc1cc(NC(=O)N2C=CC(=O)C[C@H]2c2ccc(F)cc2)c(Br)cc1C(N)=O [Compound 60, (S)-2-(4-Fluoro-phenyl)-4-oxo-3,4-dihydro-2H-pyridine-1-carboxylic acid (2-bromo-4-carbamoyl-5-methoxy-phenyl)-amide] |
| 6.365 | O=C1C=CN(C(=O)Nc2cc3c(cc2Br)OC(F)(F)O3)[C@H](c2ccc(F)cc2)C1 [Compound 61, (S)-2-(4-Fluoro-phenyl)-4-oxo-3,4-dihydro-2H-pyridine-1-carboxylic acid (6-bromo-2,2-difluoro-benzo[1,3]dioxol-5-yl)-amide] |
